Assay results: US11634452B2, “Compounds for treating neurodegenerative disorders” (ETHNODYNE, priority 2017, dated 2023)
Where “and” joins values, the source holds several entries; their conditions need not be identical. Equal values may be shown once.

How the values were obtained:
Format in all cases: cell-based
[1] = system: primary rat dopaminergic neurons (TH positive neurons) injured with 6-OHDA; test: Neuroprotective effect following exposure to 6-OHDA, with or without pathway inhibitors; details: 6-OHDA 20 μM, 48 h, no compound
Experimental: This study investigated the mode of action of CR777 on rat primary mesencephalic cultures following exposure to 6-OHDA. The effect of CR777 on level of GDNF and BDNF mRNA was investigated after 24 h 6-OHDA incubation and CR777. The main pathways of survival, regulation of the apoptosis and neuronal growth were investigated in presence of CR777 and inhibitors of these different pathways. The following pathways were investigated using antagonists of different proteins of interest: • RAS (small GTPase)/RAF (proto-oncogene Serine/threonine kinase); • Peroxisome proliferator-activated receptor gamma (PPAR-γ) (nuclear receptor) • The Pi3K/AKT/mTor (cell signaling pathway that plays a key role in cellular homeostasis through its role in regulation of apoptosis, cell growth, cell cycle). • NO (nitric oxide) pathway
Rat dopaminergic neurons were cultured as described in Example 4.
On day 6 of culture, the medium was removed and fresh medium was added, without or with 6-OHDA (Sigma, Batch: 083M4624V) at 20 μM diluted in control medium and let for 48 h. In parallel, all inhibitors were solved in culture medium and were added 2 h before the 6-OHDA application (namely 1 h before test compounds application).
CR777 was solved in DMSO at 10 mM, diluted in culture medium and then pre-incubated with mesencephalic neurons 1 hour before the 6-OHDA application (48 h). 6 wells per condition were assessed.
For survival and α-syn aggregation, compound was tested on 1 culture in a 96 well-plate (6 wells per condition), was pre-incubated 1 hour before 6-OHDA and let for 48 hours.
The following conditions were assessed: • Control (culture medium) • +6-OHDA (20 μM, 48 h) • +6-OHDA (20 μM, 48 h)+CR777 1 μM • +6-OHDA (20 μM, 48 h)+CR777 100 nM • +6-OHDA (20 μM, 48 h)+CR777 10 nM • +6-OHDA (20 μM, 48 h)+CR777 1 nM
For pathway investigation, the compound was tested on one primary dopaminergic culture in 96 well plates (6 wells per conditions).
Inhibitors were pre-incubated for 2 hours before 6-OHDA application and CR777 was pre-incubated 1 hour before 6-OHDA application.
The antagonists/inhibitors used in the experiments are the following: • FTS: farnesylthiosalicylic acid selectively disrupts the association of chronically active Ras proteins with the plasma membrane. • BEZ-235: dual PI3K/mTOR inhibitor. • T0070907: selective PPAR-γ antagonist • L-NAME (Nitro-L-arginine methyl ester): precursor to NOS inhibitor, L-NNA—requires bioactivation to become a fully functional inhibitor. • ABT-199: selective inhibitor of Bcl-2.
48 hours after intoxication, the cell culture supernatant was taken off and the dopaminergic neurons were fixed by a solution of 4% paraformaldehyde in PBS, pH=7.3 for 20 min at room temperature.
After permeabilization with 0.1% of saponin, cells were incubated for 2 hours with:
monoclonal Anti-Tyrosine Hydroxylase (TH) antibody produced in mouse at dilution of 1/10000 in PBS containing 1% FCS, 0.1% saponin,
polyclonal anti-α-syn antibody produced in rabbit at dilution of 1/200 for 2 h at room temperature.
For each condition, 20 pictures/well (representative of ˜the all well area) were automatically taken using ImageXpress (Molecular Devices) with 10× magnification. All images were taken with the same conditions. Analysis were automatically performed by using Custom Module Editor (Molecular Devices).
The following endpoint was investigated for each culture well: • The total dopaminergic neuron survival (TH staining), • The total area of α-syn on TH positive neuron (overlapping α-syn/TH)
After permeabilization with 0.1% of saponin, cells were incubated for 2 hours with monoclonal Anti-Tyrosine Hydroxylase (TH) antibody produced in mouse at dilution of 1/10000 in PBS containing 1% FCS, 0.1% saponin, for 2 h at room temperature.
The total dopaminergic neuron survival (TH staining) was investigated for each culture well.

[2] = system: primary rat cortical neurons injured with glutamate; test: Effect in rat primary cortical neurons after glutamate injury; details: glutamate 40 μM, 20 min, no compound
Experimental: A., et al., 1999. J Neurosci 19: 2455-2463 and Callizot.
The medium was changed every 2 days. The cortical neurons were intoxicated with glutamate solution.
The following conditions were assessed: • Control (culture medium) • + glutamate (40 μM, 20 min) • + glutamate (40 μM, 20 min)+CR777 (at each concentration)

[3] = system: primary rat motor neurons injured with glutamate; test: Primary motor neuron culture survival after glutamate exposure (in vitro ALS model); details: glutamate 5 μM for 20 min, no compound
Experimental: The aim of this study was to study the effect of CR777 on primary motor neuron culture from rat spinal cord (SC) injured by glutamate exposure (a well validated in vitro ALS model and model of motor neuron diseases).
Rat SC motor neurons were cultured as described by Martinou et al., Neuron. 1992 April; 8(4):737-44 and Wang et al., Hum Mol Genet. 2013 Dec. 1; 22(23):4706-19. Briefly, pregnant female rats (Wistar, Janvier labs) of 14 days gestation were killed by cervical dislocation. […] Cells were then centrifuged at 180 g for 10 min at +4° C. on a layer of BSA (3.5%) in L15 medium. […] The medium was changed every day.
The following conditions were assessed: • Control • + glutamate (5 μM 20 mn then 48 h) • + glutamate (5 μM 20 mn then 48 h)+CR777 1 pmol/L • + glutamate (5 μM 20 mn then 48 h)+CR777 10 pmol/L • + glutamate (5 μM 20 mn then 48 h)+CR777 100 pmol/L • + glutamate (5 μM 20 mn then 48 h)+CR777 1 nmol/L • + glutamate (5 μM 20 mn then 48 h)+CR777 10 nmol/L • + glutamate (5 μM 20 mn then 48 h)+CR777 100 nmol/L • + glutamate (5 μM 20 mn then 48 h)+CR777 1 μmol/L • + glutamate (5 μM 20 mn then 48 h)+CR777 10 μmol/L […]
For each condition, 6 wells were assessed, 30 pictures per well were taken using ImageXpress (Molecular Devices) with 20× magnification, to assess motor neuron survival (MAP-2). […]

[4] = system: primary rat dopaminergic neurons (TH positive neurons) injured with MPP+; test: Neuroprotective effect following exposure to MPP+; details: MPP+ 4 μM, 48 h, no compound
Experimental: This study investigated the neuroprotective effect of the Compound CR777 of example 1 on rat primary mesencephalic cultures following exposure to 1-methyl-4-phenyl pyridinium (MPP^+).
Rat dopaminergic neurons were cultured as described by Visanji et al., 2008 FASEB J. 2008; 22(7):2488-97. Briefly, the midbrains obtained from 15-day old rat embryos (Janvier Labs, France) were dissected under a microscope. The embryonic midbrains were removed and placed in ice-cold medium of Leibovitz (L15, Batch 4290114, Pan Biotech, Germany) containing 2% of Penicillin-Streptomycin (PS, Batch 1451013, Pan Biotech) and 1% of bovine serum albumin (BSA, Batch K030913, Pan Biotech). The ventral portion of the mesencephalic flexure, a region of the developing brain rich in dopaminergic neurons, was used for the cell preparations.
The midbrains were dissociated by trypsinisation for 20 min at 37° C. […] The cells were seeded in supplemented neurobasal medium at a density of 40 000 cells/well in 96 well-plates pre-coated with poly-L-lysine (Batch 3102256, Corning Biocoat) and maintained in a humidified incubator at 37° C. in 5% CO2/95% air atmosphere. Half of the medium was changed every 2 days with fresh medium.
On day 6 of culture, the medium was removed and fresh medium was added, without or with MPP+ at 4 μM diluted in control medium and let for 48 h. […]
The following conditions were assessed: (6 wells per condition) • Control (vehicle) • Compound CR777 of example 1 (1 pmol/L) • Compound CR777 of example 1 (10 pmol/L) • Compound CR777 of example 1 (100 pmol/L) • Compound CR777 of example 1 (1 nmol/L) • Compound CR777 of example 1 (10 nmol/L) • Compound CR777 of example 1 (100 nmol/L) • Compound CR777 of example 1 (1 μmol/L) • Compound CR777 of example 1 (10 μmol/L) […]
Data were expressed in percentage of control conditions (no injury, no compound=100%). All values were expressed as mean+/−SEM (standard error mean) of the 6 wells with statistical analyses on the different conditions (ANOVA followed by Dunnett's test when allowed, using GraphPad Prism software).

[5] = system: primary rat cortical neurons injured with Aβ1-42; test: Neuroprotective effect on an in vitro model of Alzheimer disease; details: Aβ1-42 20 μM, 24 h, no compound
Experimental: These peptides contribute to cerebrovascular lesions and are neurotoxic. This study investigated the neuroprotective effect of the plant extract of the invention on rat primary cortical cultures following exposure to Aβ1-42 in an in vitro AD model (Callizot. N., et al., 2013).
Rat cortical neurons were cultured as described in Example 6.
The cortical neurons were intoxicated with amyloid beta peptides solutions after 11 days of culture in presence of tested compound CR777.
Briefly, Aβ1-42 peptide (Batch: APN09080-1-1, Abcam, United Kingdom) was dissolved in the defined culture medium B27 mentioned above, devoid of serum, at an initial concentration of 40 μmol/L. This solution was gently agitated for 3 days at 37° C. in the dark and immediately used after being properly diluted in culture medium to the concentrations used (20 μM corresponding to 2 μM of AβO, measuring by WB, for survival, neurite network, tau phosphor and caspase 3 activation and 2.5 μM corresponding to 0.25 μM of AβO, for synapses evaluation).
CR777 was solved in DMSO at 10 mM and diluted in culture medium at different concentrations (see table below). The compound was tested on one primary cortical culture in 96 well plates (6 wells per conditions), and was pre-incubated 1 hour before Aβ1-42 application for 24 hours.
24 hours after intoxication, the cell culture supernatant was taken off and the cortical neurons were fixed by a cold solution of ethanol (95%) and acetic acid (5%) for 5 min at −20° C. • Plate 1: Immunostainning (MAP-2/Tau Phosphor)
After permeabilization with 0.1% of saponin, cells were incubated for 2 hours with a) a mouse monoclonal antibody anti phosphoT at dilution of 1/400 in PBS containing 1% fetal calf serum and 0.1% of saponin and b) a chicken polyclonal antibody anti microtubule-associated-protein 2 (MAP-2) at dilution of 1/1000 in PBS containing 1% fetal calf serum and 0.1% of saponin (this antibody stains specifically cell bodies and neurites, allowing study of neuronal cell survival and neurite network).
(§1) For each condition, 30 pictures/well (representative of ˜the all well area) were taken automatically using ImageXpress (Molecular Devices) with 20× magnification. All images were taken with the same conditions. Analysis were performed automatically by using Custom Module Editor (Molecular Devices).
The following endpoints were investigated per culture well: • The total neuron survival (MAP-2 staining), • The neurite network (MAP-2 staining) and • hyperphophorylation of T protein (pT) into neurons (pT/MAP-2). • Plate 2: Immunostainning (MAP-2/Caspase 3)
as §1, with “Devices). • The total number of caspase 3 positive neuron (overlapping caspase3/MAP-2) were investigated per culture well:” for “Devices).”
Data is expressed in percentage of control conditions (no injury, no compound=100%). All values are expressed as mean+/−SEM (standard error of the mean) from 6 wells per condition per culture. Neuro-Sys performed graphs and statistical analyses on the different conditions (ANOVA followed by Dunnett's test when allowed, using GraphPad Prism software version 5.0).

**Q.** For `NCCc1cc(O)c(O)cc1O` [Compound 6-OHDA, reference compound], which “TH positive neuronal death induced by the toxin” value [1] is on record?
**A.** ~30%

**Q.** What about the “loss of the neurite network induced by the toxin” value [1] of the same compound?
**A.** ~35% and ~40%

**Q.** And the “α-syn aggregation inside TH neuron cytoplasm induced by the toxin” value [1]?
**A.** large and significant α-syn aggregation

**Q.** Which results are given for `N[C@@H](CCC(=O)O)C(=O)O` [Glutamate, glutamate, reference compound]?
**A.** neurite network loss induced by glutamate [2]: neurite network loss; neuronal death induced by glutamate [2]: significant neuronal death; motor neuron death induced by glutamate [3]: > 30%

**Q.** Which “TH positive neuron cell death induced by the toxin” value [4] does the source give for `C[n+]1ccc(-c2ccccc2)cc1` [MPP+, 1-methyl-4-phenyl pyridinium, reference compound] here?
**A.** > 35%

**Q.** With “Amyloid beta peptide 1-42 [Aβ, reference compound]” as the compound, how does the “caspase 3 activation induced by Aβ” value [5] read?
**A.** activation of caspase 3

**Q.** And the “hyperphosphorylation of tau induced by Aβ” value [5]?
**A.** increase of the hyperphosphorylation of tau

**Q.** What about the “neurite network loss induced by Aβ” value [5] of the same compound?
**A.** ~40%
